How the values were obtained:
Type in all cases: physicochemical
[1] = Spreading of 10 μL droplet on polyacetate film; settings: 30 seconds
Description: (§1) Spreading was determined by applying a 10 μL droplet, of surfactant solution to polyacetate film (USI, “Crystal Clear Write on Film”) and measuring the spread diameter (mm) after 30 seconds, at a relative humidity between 50 and 70% (at 22 to 25° C.). The solution was applied with an automatic pipette to provide droplets of reproducible volume. Deionized water that was further purified with a Millipore filtration system was used to prepare the surfactant solutions.

[2] = Surface tension (Kruss surface tensiometer); settings: 0.1 wt % in 0.005M NaCl water
Description: Surface tension was measured using a Kruss surface tensiometer, with a sand blasted platinum blade as the sensor. Solutions of the various components were prepared at 0.1 wt % in 0.005M NaCl water (Deionized), as an equilibrium aid.

[3] = Spreading properties vs time at set pH (resistance to hydrolysis); settings: 0.4 wt %
Description: as §1
Therefore solutions of the organomodified disiloxane surfactants of the present invention, as well as comparative surfactants were prepared at desired use levels and pH. Spreading was determined as a function of time to illustrate resistance to hydrolysis. […]
Solutions (0.4 wt %) of the surfactants were prepared at pH 4 and pH 5 and spreading properties were observed over time. The test conditions are outlined in Example 8.

[4] = Hydrolytic stability by HPLC
[5] = Hydrolytic stability by HPLC; settings: 0.5 wt %
Description: Hydrolytic stability was determined for representative compositions of the present invention using HPLC. Solutions of the various compositions were prepared at 0.5 wt % over a pH range from pH 4 to pH 12, and monitored by HPLC for decomposition as a function of time.
• Detector: ELSD/LTA (Evaporative Light Scattering with Low Temperature Adapter • Conditions: 30° C., 1.95 SLPM N2 • Column: Phenomenex LUNA C18 end cap, 5 micron, 75×4.6 mm • Flow Rate: 1.0 mL/min. • Inj. Volume: 10 microliters • Sample: 0.050 g/mL in methanol

C[Si](C)(C)CC[Si](C)(C)O[Si](C)(C)CCCOCCOCCOCCOCCOCCOCCOCCOCCOCCOCCOCCO [Product 11]
Spread Diameter ([1]; 0.1%): 20 mm | Spread Diameter ([1]; 0.2%): 21 mm | Spread Diameter ([1]; 0.4%): 32 mm | Surface Tension [2]: 24.5 mN/m | Spreading Diameter ([3]; pH 4, 0 h): 16 mm | Spreading Diameter ([3]; pH 4, 1 mo): 10 mm | Spreading Diameter ([3]; pH 4, 1 wk): 8 mm | Spreading Diameter ([3]; pH 4, 2 wk): 8 mm | Spreading Diameter ([3]; pH 4, 3 wk): 12 mm | Spreading Diameter ([3]; pH 4, 1 h): 23 mm | Spreading Diameter ([3]; pH 4, 4 h): 23 mm | Spreading Diameter ([3]; pH 4, 24 h): 44 mm | Spreading Diameter ([3]; pH 4, 48 h): 38 mm | Spreading Diameter ([3]; pH 4, 72 h): 28 mm | Spreading Diameter ([3]; pH 5, 0 h): 26 mm | Spreading Diameter ([3]; pH 5, 1 mo): 42 mm | Spreading Diameter ([3]; pH 5, 1 wk): 29 mm | Spreading Diameter ([3]; pH 5, 2 wk): 33 mm | Spreading Diameter ([3]; pH 5, 3 wk): 33 mm | Spreading Diameter ([3]; pH 5, 1 h): 23 mm | Spreading Diameter ([3]; pH 5, 24 h): 24 mm | Spreading Diameter ([3]; pH 5, 48 h): 32 mm | Spreading Diameter ([3]; pH 5, 72 h): 35 mm | Stability: % Siloxane Surfactant Remaining ([4]; pH 4, 3 wk, Stock Solution 2.5 wt %): 79% | Stability: % Siloxane Surfactant Remaining ([4]; pH 4, 6 wk, Stock Solution 2.5 wt %): 56% | Stability: % Siloxane Surfactant Remaining ([4]; pH 4, 11 wk, Stock Solution 2.5 wt %): 10% | Stability: % Siloxane Surfactant Remaining ([4]; pH 4, 96 h, Stock Solution 2.5 wt %): 100% | Stability: % Siloxane Surfactant Remaining ([4]; pH 5, 3 wk, Stock Solution 2.5 wt %): 100% | Stability: % Siloxane Surfactant Remaining ([4]; pH 5, 6 wk, Stock Solution 2.5 wt %): 100% | Stability: % Siloxane Surfactant Remaining ([4]; pH 5, 11 wk, Stock Solution 2.5 wt %): 100% | Stability: % Siloxane Surfactant Remaining ([4]; pH 5, 96 h, Stock Solution 2.5 wt %): 100% | Stability: % Siloxane Surfactant Remaining ([4]; pH 7, 3 wk, Stock Solution 2.5 wt %): 100% | Stability: % Siloxane Surfactant Remaining ([4]; pH 7, 6 wk, Stock Solution 2.5 wt %): 100% | Stability: % Siloxane Surfactant Remaining ([4]; pH 7, 11 wk, Stock Solution 2.5 wt %): 100% | Stability: % Siloxane Surfactant Remaining ([4]; pH 7, 96 h, Stock Solution 2.5 wt %): 100% | Stability: % Siloxane Surfactant Remaining ([4]; pH 9, 3 wk, Stock Solution 2.5 wt %): 100% | Stability: % Siloxane Surfactant Remaining ([4]; pH 9, 6 wk, Stock Solution 2.5 wt %): 100% | Stability: % Siloxane Surfactant Remaining ([4]; pH 9, 11 wk, Stock Solution 2.5 wt %): 100% | Stability: % Siloxane Surfactant Remaining ([4]; pH 9, 96 h, Stock Solution 2.5 wt %): 100% | Stability: % Siloxane Surfactant Remaining ([4]; pH 10, 3 wk, Stock Solution 2.5 wt %): 100% | Stability: % Siloxane Surfactant Remaining ([4]; pH 10, 6 wk, Stock Solution 2.5 wt %): 100% | Stability: % Siloxane Surfactant Remaining ([4]; pH 10, 11 wk, Stock Solution 2.5 wt %): 100% | Stability: % Siloxane Surfactant Remaining ([4]; pH 10, 96 h, Stock Solution 2.5 wt %): 100%

CC(C)(C)CC(C)(C)c1ccc(OCCOCCOCCOCCOCCOCCOCCOCCOCCOCCO)cc1 [OPE, Octylphenolethoxylate]
Spread Diameter ([1]; 0.4%): 10 mm | Surface Tension [2]: 31.8 mN/m

C[Si](C)(C)O[Si](C)(C)CCCOCCOCCOCCOCCOCCOCCOCCOCCOCCOCCOCCO [Comparative C, reference compound]
Spread Diameter ([1]; 0.1%): 6 mm | Spread Diameter ([1]; 0.2%): 8 mm | Spread Diameter ([1]; 0.4%): 9 mm | Surface Tension [2]: 24.1 mN/m

C[Si](C)(CCCOCCOCCOCCOCCOCCOCCOCCOCCOCCOCCOCCO)O[Si](C)(C)C1CC2CC1C1C=CCC21 (stereo not shown) [Comparative D, reference compound]
Spread Diameter ([1]; 0.1%): 7 mm | Spread Diameter ([1]; 0.4%): 6 mm | Stability: % Siloxane Surfactant Remaining ([5]; pH 5, 48 h): >95% | Stability: % Siloxane Surfactant Remaining ([5]; pH 5, 9 days): 99% | Stability: % Siloxane Surfactant Remaining ([5]; pH 7, 48 h): >95% | Stability: % Siloxane Surfactant Remaining ([5]; pH 9, 48 h): >95% | Surface Tension [2]: 32.7 mN/m | Stability: % Siloxane Surfactant Remaining ([4]; pH 4, 48 h, 0.5 wt %): 82% | Stability: % Siloxane Surfactant Remaining ([4]; pH 4, 9 days, 0.5 wt %): 44% | Stability: % Siloxane Surfactant Remaining ([4]; pH 7, 9 days, 0.5 wt %): 99% | Stability: % Siloxane Surfactant Remaining ([4]; pH 9, 9 days, 0.5 wt %): 99% | Stability: % Siloxane Surfactant Remaining ([4]; pH 10, 48 h, 0.5 wt %): >95% | Stability: % Siloxane Surfactant Remaining ([4]; pH 10, 9 days, 0.5 wt %): 99%

CC(C)C[Si](C)(C)O[Si](C)(C)CCCOCCOCCOCCOCCOCCOCCOCCOCCOCCOCCOCCO [Product 7]
Spread Diameter ([1]; 0.1%, listed as 7): 14 mm | Spread Diameter ([1]; 0.2%, listed as 7): 15 mm | Spread Diameter ([1]; 0.4%, listed as 7): 25 mm | Surface Tension ([2]; listed as 7): 23.9 mN/m

CC(C)C[Si](C)(C)O[Si](C)(C)CCCOCCOCCOCCOCCOCCOCCOCCOCCOCCOCCOCCO [Product 4]
Spread Diameter ([1]; 0.1%, listed as 4): 8 mm | Spread Diameter ([1]; 0.2%, listed as 4): 9 mm | Spread Diameter ([1]; 0.4%, listed as 4): 10 mm | Surface Tension ([2]; listed as 4): 24.1 mN/m

— patent US7645720B2, “Extreme environment surfactant compositions comprising hydrolysis resistant organomodified disiloxane surfactants” (Momentive Performance Materials Inc., priority 2005, dated 2010)
